Experimental data from ChEMBL document CHEMBL5625187, “A facile and selective derivatization approach on kynurenine-NH2 in daptomycin, leading to the discovery of hexakynomycin to combat multidrug-resistant Gram-positive pathogens especially daptomycin-resistant bacteria” (Eur J Med Chem, 2023).

Key:
Assay type in all cases: functional
Enterococcus faecium = test: Antibacterial activity against glycopeptide-resistant Enterococcus faecium Efm-HS-0649 assessed as reduction in microbial growth incubated for 24 hrs by broth microdilution method
Staphylococcus aureus [1] = test: Antibacterial activity against methicillin-susceptible Staphylococcus aureus Newman ATCC 25904 assessed as reduction in microbial growth incubated for 24 hrs by broth microdilution method
Staphylococcus aureus [2] = test: Antibacterial activity against vancomycin-intermediate resistant Staphylococcus aureus Mu 50 assessed as reduction in microbial growth incubated for 24 hrs by broth microdilution method
Staphylococcus aureus [3] = test: Antibacterial activity against methicillin-resistant Staphylococcus aureus USA300 assessed as reduction in microbial growth incubated for 24 hrs by broth microdilution method

| SMILES | MIC (Enterococcus faecium) | MIC (Staphylococcus aureus [1]) | MIC (Staphylococcus aureus [2]) | MIC (Staphylococcus aureus [3]) |
| --- | --- | --- | --- | --- |
| CCCCCCCCCC(=O)N[C@@H](Cc1c[nH]c2ccccc12)C(=O)N[C@H](CC(N)=O)C(=O)N[C@@H](CC(=O)O)C(=O)N[C@@H]1C(=O)NCC(=O)N[C@@H](CCCN)C(=O)N[C@@H](CC(=O)O)C(=O)N[C@H](C)C(=O)N[C@@H](CC(=O)O)C(=O)NCC(=O)N[C@H](CO)C(=O)N[C@@H]([C@H](C)CC(=O)O)C(=O)N[C@@H](CC(=O)c2ccccc2NCCC[S+](C)CC(O)CC)C(=O)O[C@@H]1C (single isomer, unassigned) | > 128 µg/mL | > 128 µg/mL | > 128 µg/mL | > 128 µg/mL |
| CCCCCCCCCC(=O)N[C@@H](Cc1c[nH]c2ccccc12)C(=O)N[C@H](CC(N)=O)C(=O)N[C@@H](CC(=O)O)C(=O)N[C@@H]1C(=O)NCC(=O)N[C@@H](CCCN)C(=O)N[C@@H](CC(=O)O)C(=O)N[C@H](C)C(=O)N[C@@H](CC(=O)O)C(=O)NCC(=O)N[C@H](CO)C(=O)N[C@@H]([C@H](C)CC(=O)O)C(=O)N[C@@H](CC(=O)c2ccccc2NCC(=O)O)C(=O)O[C@@H]1C | 128 µg/mL | 32 µg/mL | 128 µg/mL | 32 µg/mL |
| CCCCCCCCCC(=O)N[C@@H](Cc1c[nH]c2ccccc12)C(=O)N[C@H](CC(N)=O)C(=O)N[C@@H](CC(=O)O)C(=O)N[C@@H]1C(=O)NCC(=O)N[C@@H](CCCN)C(=O)N[C@@H](CC(=O)O)C(=O)N[C@H](C)C(=O)N[C@@H](CC(=O)O)C(=O)NCC(=O)N[C@H](CO)C(=O)N[C@@H]([C@H](C)CC(=O)O)C(=O)N[C@@H](CC(=O)c2ccccc2NCCC2C(=O)C=CC2=O)C(=O)O[C@@H]1C (single isomer, unassigned) | 128 µg/mL | 128 µg/mL | > 128 µg/mL | 128 µg/mL |
| C#CC[S+](C)CCCNc1ccccc1C(=O)C[C@@H]1NC(=O)[C@H]([C@H](C)CC(=O)O)NC(=O)[C@@H](CO)NC(=O)CNC(=O)[C@H](CC(=O)O)NC(=O)[C@@H](C)NC(=O)[C@H](CC(=O)O)NC(=O)[C@H](CCCN)NC(=O)CNC(=O)[C@@H](NC(=O)[C@H](CC(=O)O)NC(=O)[C@@H](CC(N)=O)NC(=O)[C@H](Cc2c[nH]c3ccccc23)NC(=O)CCCCCCCCC)[C@@H](C)OC1=O (stereo partly drawn) | 128 µg/mL | 128 µg/mL | > 128 µg/mL | 128 µg/mL |
| CCCCCCCCCC(=O)N[C@@H](Cc1c[nH]c2ccccc12)C(=O)N[C@H](CC(N)=O)C(=O)N[C@@H](CC(=O)O)C(=O)N[C@@H]1C(=O)NCC(=O)N[C@@H](CCCN)C(=O)N[C@@H](CC(=O)O)C(=O)N[C@H](C)C(=O)N[C@@H](CC(=O)O)C(=O)NCC(=O)N[C@H](CO)C(=O)N[C@@H]([C@H](C)CC(=O)O)C(=O)N[C@@H](CC(=O)c2ccccc2NCC2CCCCC2)C(=O)O[C@@H]1C (single isomer, unassigned) | 1 µg/mL | 1 µg/mL | 4 µg/mL | 0.5 µg/mL |
| CCCCCCCCCC(=O)N[C@@H](Cc1c[nH]c2ccccc12)C(=O)N[C@H](CC(N)=O)C(=O)N[C@@H](CC(=O)O)C(=O)N[C@@H]1C(=O)NCC(=O)N[C@@H](CCCN)C(=O)N[C@@H](CC(=O)O)C(=O)N[C@H](C)C(=O)N[C@@H](CC(=O)O)C(=O)NCC(=O)N[C@H](CO)C(=O)N[C@@H]([C@H](C)CC(=O)O)C(=O)N[C@@H](CC(=O)c2ccccc2NCCC[S+](C)[O-])C(=O)O[C@@H]1C (stereo partly drawn) | 128 µg/mL | 128 µg/mL | > 128 µg/mL | 128 µg/mL |
| CCCCCCCCCC(=O)N[C@@H](Cc1c[nH]c2ccccc12)C(=O)N[C@H](CC(N)=O)C(=O)N[C@@H](CC(=O)O)C(=O)N[C@@H]1C(=O)NCC(=O)N[C@@H](CCCN)C(=O)N[C@@H](CC(=O)O)C(=O)N[C@H](C)C(=O)N[C@@H](CC(=O)O)C(=O)NCC(=O)N[C@H](CO)C(=O)N[C@@H]([C@H](C)CC(=O)O)C(=O)N[C@@H](CC(=O)c2ccccc2NCCCSC)C(=O)O[C@@H]1C (single isomer, unassigned) | 1 µg/mL | 1 µg/mL | 4 µg/mL | 0.5 µg/mL |
